Assay results published in article PMC6437697 (Journal of Medicinal Chemistry, 2019).

Assays:
Assay in all cases: KINOMEscan
SGK2 = target: T1, SGK2 (Homo sapiens, UniProt Q9HBY8); format: binding; details: read-out: % control activity remaining
T1 construct: purchased Eurofins DiscoverX KINOMEscan
T1 sequence (Q9HBY8 1-367): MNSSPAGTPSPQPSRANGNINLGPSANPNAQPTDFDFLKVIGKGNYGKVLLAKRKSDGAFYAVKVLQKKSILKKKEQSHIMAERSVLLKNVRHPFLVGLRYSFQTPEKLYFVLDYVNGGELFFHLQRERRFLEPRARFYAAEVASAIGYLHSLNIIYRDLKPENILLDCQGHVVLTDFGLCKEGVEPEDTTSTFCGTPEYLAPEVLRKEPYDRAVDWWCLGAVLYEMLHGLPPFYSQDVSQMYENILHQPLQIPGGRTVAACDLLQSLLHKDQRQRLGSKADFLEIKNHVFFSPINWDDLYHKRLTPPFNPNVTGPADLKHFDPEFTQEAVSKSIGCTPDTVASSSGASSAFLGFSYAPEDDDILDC

AKT2 = target: T2, AKT2 (Homo sapiens, UniProt P31751); format: binding; details: read-out: % control activity remaining
T2 construct: purchased Eurofins DiscoverX KINOMEscan
T2 sequence (P31751 whole entry): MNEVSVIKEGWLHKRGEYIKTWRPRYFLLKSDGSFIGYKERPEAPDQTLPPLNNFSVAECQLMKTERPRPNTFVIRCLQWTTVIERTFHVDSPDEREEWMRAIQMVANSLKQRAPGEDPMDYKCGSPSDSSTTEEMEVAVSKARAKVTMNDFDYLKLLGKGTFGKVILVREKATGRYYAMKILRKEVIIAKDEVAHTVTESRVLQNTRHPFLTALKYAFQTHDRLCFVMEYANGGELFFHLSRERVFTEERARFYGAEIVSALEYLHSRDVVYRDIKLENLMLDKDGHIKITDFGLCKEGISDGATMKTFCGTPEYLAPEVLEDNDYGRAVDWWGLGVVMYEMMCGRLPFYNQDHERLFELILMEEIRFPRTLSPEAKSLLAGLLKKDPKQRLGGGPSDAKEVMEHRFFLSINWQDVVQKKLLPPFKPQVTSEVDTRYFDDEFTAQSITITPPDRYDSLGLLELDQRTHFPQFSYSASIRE

EPHB4 = target: T3, EPHB4 (Homo sapiens, UniProt P54760); format: binding; details: read-out: % control activity remaining
T3 construct: purchased Eurofins DiscoverX KINOMEscan
T3 sequence (P54760 16-987): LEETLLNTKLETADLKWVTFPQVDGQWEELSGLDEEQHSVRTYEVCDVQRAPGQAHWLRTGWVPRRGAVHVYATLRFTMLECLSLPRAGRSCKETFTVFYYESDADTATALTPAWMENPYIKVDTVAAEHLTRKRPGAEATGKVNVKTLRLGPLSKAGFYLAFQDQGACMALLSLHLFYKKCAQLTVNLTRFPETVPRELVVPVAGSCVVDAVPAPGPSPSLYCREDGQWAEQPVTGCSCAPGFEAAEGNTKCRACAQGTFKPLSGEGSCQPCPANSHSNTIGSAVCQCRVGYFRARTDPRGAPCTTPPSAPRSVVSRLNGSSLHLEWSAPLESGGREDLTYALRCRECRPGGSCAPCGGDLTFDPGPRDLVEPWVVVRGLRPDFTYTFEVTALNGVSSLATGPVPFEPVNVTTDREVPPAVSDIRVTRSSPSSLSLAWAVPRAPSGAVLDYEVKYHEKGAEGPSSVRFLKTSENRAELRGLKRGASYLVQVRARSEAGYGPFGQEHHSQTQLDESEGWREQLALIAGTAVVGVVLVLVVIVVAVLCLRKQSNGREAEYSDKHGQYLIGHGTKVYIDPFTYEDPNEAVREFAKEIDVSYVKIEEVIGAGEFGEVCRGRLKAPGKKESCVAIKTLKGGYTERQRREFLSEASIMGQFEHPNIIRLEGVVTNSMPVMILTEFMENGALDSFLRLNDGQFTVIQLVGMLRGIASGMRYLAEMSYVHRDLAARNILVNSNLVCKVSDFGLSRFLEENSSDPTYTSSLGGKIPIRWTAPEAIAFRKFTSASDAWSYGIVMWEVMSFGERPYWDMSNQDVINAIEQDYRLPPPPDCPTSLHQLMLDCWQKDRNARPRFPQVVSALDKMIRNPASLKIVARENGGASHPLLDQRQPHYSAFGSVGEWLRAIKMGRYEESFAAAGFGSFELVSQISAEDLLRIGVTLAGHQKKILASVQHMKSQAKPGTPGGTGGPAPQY

CSNK1A1L = target: T4, CSNK1A1L (Homo sapiens, UniProt Q8N752); format: binding; details: read-out: % control activity remaining
T4 construct: purchased Eurofins DiscoverX KINOMEscan
T4 sequence (Q8N752 1-337): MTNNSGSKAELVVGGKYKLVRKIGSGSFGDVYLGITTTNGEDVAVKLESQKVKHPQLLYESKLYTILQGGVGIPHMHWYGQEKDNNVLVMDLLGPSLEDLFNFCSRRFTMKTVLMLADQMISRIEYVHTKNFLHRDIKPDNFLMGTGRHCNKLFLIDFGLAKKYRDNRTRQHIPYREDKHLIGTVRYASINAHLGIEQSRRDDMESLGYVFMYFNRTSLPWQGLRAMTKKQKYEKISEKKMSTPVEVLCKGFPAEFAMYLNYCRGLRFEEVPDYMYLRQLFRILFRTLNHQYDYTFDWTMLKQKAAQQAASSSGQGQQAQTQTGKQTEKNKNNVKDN

ERK8 = target: T5, ERK8 (Homo sapiens, UniProt Q8TD08); format: binding; details: read-out: % control activity remaining
T5 construct: purchased Eurofins DiscoverX KINOMEscan
T5 sequence (Q8TD08 1-544): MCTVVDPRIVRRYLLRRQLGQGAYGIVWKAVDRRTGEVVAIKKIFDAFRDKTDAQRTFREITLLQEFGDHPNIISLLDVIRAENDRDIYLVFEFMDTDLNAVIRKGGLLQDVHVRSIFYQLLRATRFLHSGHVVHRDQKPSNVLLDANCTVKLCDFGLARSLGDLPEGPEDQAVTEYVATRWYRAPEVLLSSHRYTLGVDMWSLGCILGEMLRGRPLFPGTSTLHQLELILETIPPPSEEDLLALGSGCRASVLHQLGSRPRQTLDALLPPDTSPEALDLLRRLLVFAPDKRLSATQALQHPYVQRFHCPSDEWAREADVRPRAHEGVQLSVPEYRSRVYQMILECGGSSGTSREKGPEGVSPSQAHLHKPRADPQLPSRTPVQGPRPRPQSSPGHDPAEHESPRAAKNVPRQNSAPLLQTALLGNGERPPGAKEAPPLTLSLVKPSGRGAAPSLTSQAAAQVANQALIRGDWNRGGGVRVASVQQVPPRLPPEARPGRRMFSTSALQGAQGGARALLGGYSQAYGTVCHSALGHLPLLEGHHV

FLT3(ITD) = format: binding, human; details: 1000 nM
CDC2L5 = target: T6, CDC2L5 (Homo sapiens, UniProt Q14004); format: binding; details: read-out: % control activity remaining
T6 construct: purchased Eurofins DiscoverX KINOMEscan
T6 sequence (Q14004 whole entry): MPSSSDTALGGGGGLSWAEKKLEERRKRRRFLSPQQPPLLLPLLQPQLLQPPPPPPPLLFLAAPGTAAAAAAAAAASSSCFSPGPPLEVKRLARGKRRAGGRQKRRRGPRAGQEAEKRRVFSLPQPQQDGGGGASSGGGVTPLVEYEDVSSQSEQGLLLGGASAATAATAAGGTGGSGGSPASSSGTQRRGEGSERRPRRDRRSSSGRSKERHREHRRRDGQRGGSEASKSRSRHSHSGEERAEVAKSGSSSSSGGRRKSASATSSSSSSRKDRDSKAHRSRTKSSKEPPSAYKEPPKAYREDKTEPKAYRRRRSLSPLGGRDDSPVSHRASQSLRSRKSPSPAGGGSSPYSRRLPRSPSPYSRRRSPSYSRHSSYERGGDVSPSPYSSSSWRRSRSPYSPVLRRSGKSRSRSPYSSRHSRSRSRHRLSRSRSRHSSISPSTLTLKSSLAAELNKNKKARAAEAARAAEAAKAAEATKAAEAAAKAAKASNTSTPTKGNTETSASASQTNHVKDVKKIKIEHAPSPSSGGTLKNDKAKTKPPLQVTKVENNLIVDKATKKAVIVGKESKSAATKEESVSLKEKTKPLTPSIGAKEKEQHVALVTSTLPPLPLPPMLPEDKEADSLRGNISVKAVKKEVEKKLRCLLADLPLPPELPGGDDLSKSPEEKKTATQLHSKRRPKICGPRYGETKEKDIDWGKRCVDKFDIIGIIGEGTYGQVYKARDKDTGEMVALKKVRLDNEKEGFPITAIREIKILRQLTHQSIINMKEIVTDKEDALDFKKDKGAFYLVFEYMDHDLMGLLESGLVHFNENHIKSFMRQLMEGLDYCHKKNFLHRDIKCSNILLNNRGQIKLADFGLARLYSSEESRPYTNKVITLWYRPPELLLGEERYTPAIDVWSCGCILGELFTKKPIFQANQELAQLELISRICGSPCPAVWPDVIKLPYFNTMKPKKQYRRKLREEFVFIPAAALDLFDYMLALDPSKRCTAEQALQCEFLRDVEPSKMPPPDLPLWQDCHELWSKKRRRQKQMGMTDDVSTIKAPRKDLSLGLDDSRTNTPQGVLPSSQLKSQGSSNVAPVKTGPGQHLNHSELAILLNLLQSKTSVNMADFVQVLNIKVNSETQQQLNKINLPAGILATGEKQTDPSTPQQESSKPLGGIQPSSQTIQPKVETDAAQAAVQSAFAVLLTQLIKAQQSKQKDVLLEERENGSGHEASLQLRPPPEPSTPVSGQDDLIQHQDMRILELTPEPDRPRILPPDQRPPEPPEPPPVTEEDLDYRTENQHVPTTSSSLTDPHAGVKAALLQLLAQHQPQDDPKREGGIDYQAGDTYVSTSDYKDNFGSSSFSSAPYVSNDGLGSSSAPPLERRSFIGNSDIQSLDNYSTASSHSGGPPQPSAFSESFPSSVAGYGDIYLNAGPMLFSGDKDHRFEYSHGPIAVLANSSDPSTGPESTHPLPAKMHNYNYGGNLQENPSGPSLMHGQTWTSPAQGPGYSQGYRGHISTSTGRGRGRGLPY

FGFR2 = target: T7, FGFR2 (Homo sapiens, UniProt P21802); format: binding; details: read-out: % control activity remaining
T7 construct: purchased Eurofins DiscoverX KINOMEscan
T7 sequence (P21802 22-821): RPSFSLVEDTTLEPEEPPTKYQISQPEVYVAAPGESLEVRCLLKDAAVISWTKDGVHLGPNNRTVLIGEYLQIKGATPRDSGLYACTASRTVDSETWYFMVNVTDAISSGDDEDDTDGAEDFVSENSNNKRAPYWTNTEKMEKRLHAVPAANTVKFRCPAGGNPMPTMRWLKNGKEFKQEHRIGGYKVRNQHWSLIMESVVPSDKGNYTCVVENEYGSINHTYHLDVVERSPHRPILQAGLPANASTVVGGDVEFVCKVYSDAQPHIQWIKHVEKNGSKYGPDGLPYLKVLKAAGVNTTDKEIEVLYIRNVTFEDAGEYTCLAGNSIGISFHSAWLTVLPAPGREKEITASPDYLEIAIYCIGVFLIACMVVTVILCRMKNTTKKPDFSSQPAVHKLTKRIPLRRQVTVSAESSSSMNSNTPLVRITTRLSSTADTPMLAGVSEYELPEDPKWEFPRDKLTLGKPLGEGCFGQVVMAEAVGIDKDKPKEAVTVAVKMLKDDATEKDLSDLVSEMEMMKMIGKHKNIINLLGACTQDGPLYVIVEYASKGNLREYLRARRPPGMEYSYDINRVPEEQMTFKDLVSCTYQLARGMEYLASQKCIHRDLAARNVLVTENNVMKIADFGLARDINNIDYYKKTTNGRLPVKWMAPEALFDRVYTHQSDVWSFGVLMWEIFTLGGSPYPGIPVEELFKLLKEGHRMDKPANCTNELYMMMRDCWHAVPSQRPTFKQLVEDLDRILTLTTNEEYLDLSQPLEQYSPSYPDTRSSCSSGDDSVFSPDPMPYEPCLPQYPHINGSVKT

SMILES | remaining binding at 1 µM (SGK2) | remaining binding at 1 µM (AKT2) | remaining binding at 1 µM (EPHB4) | remaining binding at 1 µM (CSNK1A1L) | remaining binding at 1 µM (ERK8) | % control activity remaining (FLT3(ITD)) | remaining binding at 1 µM (CDC2L5) | remaining binding at 1 µM (FGFR2)
Clc1cc(NCC2CC2)c2ncc(-c3ccc4[nH]ncc4c3)n2n1 [compound 2, 6-Chloro-N-(cyclopropylmethyl)-3-(1H-indazol-5-yl)imidazo[1,2-b]pyridazin-8-amine] | 89% | 99% | 79% | 100% | 87% | 5.6% | 92% | 85%
O=C(CN1CCOCC1)N[C@H]1CC[C@H](Nc2cc(Cl)nn3c(-c4ccc5[nH]ncc5c4)cnc23)CC1 [compound 26] | 100% | 99% | 95% | 88% | 81% | 0.25% | 84% | 91%
CN1CCC(CNc2cc(Cl)nn3c(-c4cc5nc(Nc6ccccc6)[nH]c5cc4F)cnc23)CC1 [compound 31, 6-Chloro-3-(6-fluoro-2-(phenylamino)-1H-benzo[d]imidazol-5-yl)-N-((1-methylpiperidin-4-yl)methyl)imidazo[1,2-b]pyridazin-8-amine] | 83% | 80% | 100% | 100% | 100% | 91% | 96% | 84%
